{
  "source": "patent US20250275993A1",
  "about": "“GLYCOSYLATION INHIBITORS AS THERAPEUTICS FOR STROKE” (The Regents of the University of California, priority 2022, published 2025)",
  "key": {"[1]": {"test_system": "VEGFR2", "assay": "VEGFR2 western blot in BCECs (molecular mass, phosphorylation, PNGase F)", "assay_type": "cell-based, bovine", "conditions": "VEGF at 5 ng/ml for 24 hours", "protocol": "Glycerol-free PNGase F was obtained from New England Biolabs (Ipswich, MA). Briefly, BCECs were lysed with NP-40 containing proteinase inhibitors (Thermo Scientific, Waltham, MA). Lysates were cleared at 4° C. at 5000 g for 25 mins. Total protein content was measured using Pierce BCA protein assay kit (Thermo Scientific). 20 mg of protein was mixed with 10× denaturing buffer and H2O to a total volume of […]. Glycoproteins were denatured at 100° C. for 10 mins, followed by adding Glycobuffer and PNGase F. The reaction was carried out at 37° C. for 2 hr.\nCells were allowed to reach-80% confluency in 12-well plates. […] At various time points, plates were taken out of the incubator and kept on ice. […] Lysates were collected and mixed with 4× Bolt LDS Sample Buffer (Novex, Carlsbad, CA) in the presence of Halt protease inhibitors and phosphatase inhibitor cocktail (ThermoFisher scientific, #NP0007). […] HUVECs (passage 6-8) were plated in EBM-2 basal medium (Lonza) with 0.2% FBS. Following overnight culture, cells were serum-starved in EBM-2 medium for 4 hrs prior to treatment with 50 ng/ml of VEGF165 or vehicle controls for various lengths. Equal amounts of protein lysates were analyzed by SDS-PAGE and blotted with the indicated antibodies. Proteins were transferred using Tris-Glycine buffer with 20% Methanol (Proteonomics grade) (Apex BioResearch Products). Membranes were first incubated with 5% milk in TBST, pH 7.6 (TEKnova, Hollister, CA), followed by blotting with primary and secondary antibodies. ECL anti-rabbit IgG, horseradish peroxidase linked whole antibody from donkey or sheep anti-mouse were obtained from GE Healthcare (UK limited). SuperSignal West Dura Extended Duration substrate was from ThermoFisher Scientific. In some cases, the same PVDF membranes were stripped by 8-min incubation in the Restore Plus Western Blot Stripping Buffer (ThermoFisher Scientific) to show total specific protein expression, followed by second stripping for (3-actin expression."}, "[2]": {"test_system": "skin wound", "assay": "Skin wound healing model (splinted wound)", "assay_type": "in vivo, mouse", "conditions": "topical 20 μg daily; mice; PBS group 81.5%", "description": "The model has been previously described. Briefly, C57BL/6 female mice (8-10 weeks old) were obtained from Jackson labs (Sacramento, CA). A fresh, full-thickness punch wound (4 mm diameter) using a punch (Acu Punch, Acuderm inc. Ft. Lauderdale, FL) splinted with a sterile neoprene ring (6-mm outer diameter and 4-mm inner diameter), fastened with 5-6 sutures (4-0 nylon) under the influence of Isoflurane was created on the back of the animal in a Class II Biological Safety Cabinet. For all surgical procedures, sterile technique was followed. Buprenorphine was given subcutaneously prior to awakening from anesthesia for anticipated pain. Mice were monitored until fully awake and were housed individually to minimize damage/biting/fighting to the surgical site. […] Treatment agents were prepared in PBS, sterile-filtered and 25 μl solution was applied daily directly to a wound bed for the first 4-5 days under the influence of Isoflurane, followed by daily observation. Wound closure was monitored by regular imaging and the wound area was quantified using ImageJ (National Institutes of Health, Bethesda, MD, USA). […] Epithelial gap was measured histomorphometrically using AxioVision LE Rel.4.4 software. […] Small vessels stained positive for CD31 were counted microscopically on 10 fields (20×) taken around the wound."}, "[3]": {"test_system": "BCEC confluent monolayers", "assay": "BCEC scratch assay", "assay_type": "cell-based, bovine", "conditions": "40 μM ManN or 50 ng/ml of VEGF; after 48 hours", "protocol": "BCECs (passage 6-10) and HUVEC (passage 6-8) were used in this assay. Cells were grown until about 80% confluency in 6-well plates, washed twice with PBS and then starved in serum-free DMEM (low Glucose, Hyclone) for 5 hrs before making a “scratch” using 1 ml tip. Cell monolayers were briefly washed once with serum-free media, followed by various treatments in media containing 1% FBS. 48 hrs later, the assay was stopped by adding 2 ml 4% paraformaldehyde. 20 min later, fixed cells were stained with 1 ml Crystal Violet (Sigma). Plates were washed gently under the running tap water and air-dried before taking pictures. Images were acquired by ZEISS Discovery […] microscopy equipped with […] camera. Quantification of wound closure was done using AxioVision LE Rel.4.4 software. Six images were taken for each sample and six measurements (in pixel) were made on each image using AxioVision LE Re1.4.4 software."}},
  "data": [
    {"substance": "VEGF", "values": [
      {"measurement": "effect of VEGF alone on VEGFR2 molecular mass", "setting": "[1]", "value": "no effect on molecular mass"},
      {"measurement": "average closure of the wound on day 4", "setting": "[2]", "value": 66.9, "unit": "%"},
      {"measurement": "closure of the scratched area vs control", "setting": "[3]", "value": "significantly accelerated BCEC migration and/or proliferation"}
    ]}
  ]
}
